Measurements as given in EP0339978B1, “Fused polycyclic compounds, compositions, methods of manufacture, and their use as PAF antagonists, antihistamines and/or antiinflammatory agents” (SCHERING CORPORATION, priority 1988, dated 1989).

Tests used:
[1] = test system: PAF; test: PAF antagonism in vitro assay: PAF-induced platelet aggregation in platelet-rich plasma; assay type: cell-based; settings: PAF 1-5 X 10^-8M, human PRP
Description: Preparation of platelet-rich plasma (PRP): Human blood (50 ml) is collected from healthy male donors. The blood is mixed with an anticoagulant solution (5 ml) containing sodium citrate (3.8%) and dextrose (2%). Blood is centrifuged at 110 X g for 15 min. and the supernatant PRP is carefully transferred into a polypropylene tube. Platelet-poor-plasma (PPP) is prepared by centrifuging PRP at 12,000 X g for 2 min. in a Beckman Microfuge B. PRP is used within 3 hours of drawing the blood.
Platelet Aggregation Assay: When an aggregating agent such as PAF is added to PRP, platelets aggregate. An aggregometer quantifies this aggregation by measuring light (infra-red) transmission through PRP and comparing it to transmission through PPP. The aggregation assays are performed using a dual-channel aggregometer (Model 440, Chrono-Log Corp., Havertown, PA). PRP (0.45 ml) in aggregometer curettes is continually stirred (37°C). Solutions of test compounds or vehicle are added to the PRP, and, after incubation for 2 min., 10-15 µl aliquots of pAF solution are added so as to achieve a final concentration of 1-5 X 10^-8M. Incubations are continued until the increase in light transmission reaches a maximum (usually about 2 min). Values for inhibition are calculated by comparing maximal aggregation obtained in the absence and the presence of the compound. For each experiment, a standard PAF antagonist, such as alprazolam, is used as a positive internal control. The inhibitory concentration is the concentration of compound in micromoles at which the indicated % inhibition of the aggregation is found, as measured by the light transmission through each sample of PRP as compared to that through each sample of PPP.

[2] = test system: Cellular and Fluid Influx to Rat Pleural Cavity; test: Inhibition of cellular and fluid influx to rat pleural cavity (antiinflammatory activity assay); assay type: in vivo; settings: 25 mg 1 kg p.o., rats
Description: Compounds 3.0 of this invention are useful for the treatment of inflammation; thus, they are useful for the treatment of arthritus, bursitis, tendonitis, gout, and other inflammatory conditions. […] Protection against cellular and fluid influx strongly indicates antiinflammatory properties. D. Antiinflammatory Activity Assay Inhibition of Cellular and Fluid Influx to Rat Pleural Cavity. Groups of 4 male rats are injected in the penile vein with antigen (1 mg BSA in 0.2 mL of saline per rat) and 0.5 hour later injected in the pleural cavity with antibody (1.0 mg antibody protein in the IgG fraction of rabbit anti-BSA in 0.2 mL). […] After 4 hours the animals are killed with CO2, and the pleural cavities are opened and the exudate is drained into a graduated conical glass centrifuge tube containing indomethacin (1.8 ug) and nordihydroguaiaretic acid (NDGA) (15 ug) to block ex vivo metabolite synthesis. The volume of the exudate is measured. The cavity is then washed out with saline-EDTA to achieve a final volume of 5.0 mL. The number of cells is determined in a Coulter Counter. The cells are spun-down (1000 x g) and the exudate supernatant is added to 4 volumes of 95% ethanol and samples are kept on ice for 30 minutes. After removal of the protein precipitate (2,500 x g) the ethanol extract of the exudate is dried under N2 and then is stored at -20°C. […]

Row | SMILES | Inhibition (%) ([1]; Dose 12 μm) | Inhibition (%) ([1]; Dose 25 μm) | Inhibition (%) ([1]; Dose 50 μm) | reduced cellular influx to the pleural cavity [2] [%] | reduced fluid influx to the pleural cavity [2] [%]
1 | CC(=O)N1CCC(=C2c3ccccc3CCc3sc(C)nc32)CC1 [compound 4] | 29 | 71 | 100 |  | 
2 | O=C1c2ccccc2CCc2c1[nH]c1ccccc21 [Compound E, 11,12-Dihydrobenzo[5,6]cyclohepta[1,2-b]indol-6(5H)-one] |  |  |  | 65 | 25
3 | COc1ccc(Cn2c(C)nc3c2CCc2ccccc2C3=C2CCN(C(C)=O)CC2)cc1 [compound 5] |  |  | 67 |  | 
